Assay results as given in the supplement of paper PMC10307832.

Key:
Assay in all cases: relative viability (nuclei count vs DMSO), 5 days (fraction); higher = more cells survive
[1] = compound: C[C@@H](N)c1ccc(C(=O)Nc2ccnc3[nH]ccc23)cc1 + Cc1nc(NC(=O)N2CCC[C@H]2C(N)=O)sc1-c1ccnc(C(C)(C)C(F)(F)F)c1 [Alpelisib] (partner 2 µM)
Outline: (§1)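 Values are medians from duplicate plates. Each reflects relative viability, defined as the nuclei count of treated wells over that of vehicle wells. Lung cancer cell lines in 1536-well plates were pin-tool dosed one day after seeding with one drug alone or with a fixed anchor-drug dose plus five library-drug doses (not always all listed) in √10 steps, then fixed, stained and imaged at 4× after 5 days.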

[2] = compound: C[C@@H](N)c1ccc(C(=O)Nc2ccnc3[nH]ccc23)cc1 + O=C(CCCCCCC(=O)Nc1ccccc1)NO [Vorinostat] (partner 1 µM)
Outline: as §1

[3] = compound: O[C@H]1CC[C@H](Nc2ncc3nc(Nc4c(F)cc(F)cc4F)n([C@H]4CCOC4)c3n2)CC1 [Tanzisertib] + Cc1cc(Nc2cc(N3CCN(C)CC3)nc(Sc3ccc(NC(=O)C4CC4)cc3)n2)n[nH]1 [Tozasertib] (partner 0.1 µM)
Outline: as §1

[4] = compound: O[C@H]1CC[C@H](Nc2ncc3nc(Nc4c(F)cc(F)cc4F)n([C@H]4CCOC4)c3n2)CC1 [Tanzisertib] + Cc1nc(Nc2ncc(C(=O)Nc3c(C)cccc3Cl)s2)cc(N2CCN(CCO)CC2)n1 [Dasatinib] (partner 0.075 µM)
Outline: as §1

Row | Cell Line | relative viability ([1]; first compound 0.04 µM) | relative viability ([1]; first compound 0.1265 µM) | relative viability ([1]; first compound 0.4 µM) | relative viability ([1]; first compound 1.265 µM) | relative viability ([1]; first compound 4 µM) | relative viability ([2]; first compound 0.04 µM) | relative viability ([2]; first compound 0.1265 µM) | relative viability ([2]; first compound 0.4 µM) | relative viability ([2]; first compound 1.265 µM) | relative viability ([2]; first compound 4 µM) | relative viability ([3]; first compound 0.08 µM) | relative viability ([3]; first compound 0.253 µM) | relative viability ([3]; first compound 0.8 µM) | relative viability ([3]; first compound 2.53 µM) | relative viability ([3]; first compound 8 µM) | relative viability ([4]; first compound 0.08 µM) | relative viability ([4]; first compound 0.253 µM) | relative viability ([4]; first compound 0.8 µM) | relative viability ([4]; first compound 2.53 µM) | relative viability ([4]; first compound 8 µM)
1 | NCI-H838 | 0.909 | 0.884 | 0.773 | 0.571 | 0.344 | 0.763 | 0.657 | 0.583 | 0.41 | 0.307 | 0.317 | 0.283 | 0.301 | 0.249 | 0.237 | 0.355 | 0.324 | 0.3 | 0.328 | 0.31
2 | A549 | 0.877 | 0.834 | 0.846 | 0.751 | 0.559 |  |  |  |  |  |  |  |  |  |  |  |  |  |  | 
3 | NCI-H2342 |  |  |  |  |  | 0.772 | 0.744 | 0.704 | 0.869 | 0.731 | 0.584 | 0.481 | 0.63 | 0.523 | 0.581 | 0.32 | 0.311 | 0.308 | 0.283 | 0.32
4 | NCI-H1623 |  |  |  |  |  |  |  |  |  |  | 0.482 | 0.414 | 0.482 | 0.47 | 0.405 | 0.59 | 0.572 | 0.608 | 0.455 | 0.514
5 | SK-LU-1 | 1.03 | 0.973 | 0.986 | 0.888 | 0.704 | 0.776 | 0.767 | 0.696 | 0.671 | 0.522 | 0.33 | 0.316 | 0.263 | 0.309 | 0.319 | 0.212 | 0.165 | 0.18 | 0.148 | 0.165
6 | NCI-H2085 | 1 | 0.923 | 0.925 | 0.936 | 0.966 | 0.77 | 0.705 | 0.806 | 0.667 | 0.706 | 0.9 | 0.822 | 0.914 | 0.644 | 0.59 | 0.22 | 0.246 | 0.24 | 0.224 | 0.261
7 | NCI-H460 | 0.531 | 0.549 | 0.697 | 0.555 | 0.41 | 0.86 | 0.73 | 0.771 | 0.949 | 0.702 | 0.548 | 0.376 | 0.457 | 0.382 | 0.099 | 0.595 | 0.595 | 0.489 | 0.474 | 0.303
8 | Calu-6 | 0.958 | 1.01 | 0.904 | 0.765 | 0.797 |  |  |  |  |  |  |  |  |  |  |  |  |  |  | 
9 | RERF-LC-KJ | 0.899 | 0.939 | 0.809 | 0.945 | 0.851 | 0.737 | 0.736 | 0.838 | 0.652 | 0.74 | 0.386 | 0.554 | 0.61 | 0.383 | 0.442 | 0.95 | 0.814 | 0.912 | 0.685 | 0.744
10 | LCLC-103H | 1.15 | 0.956 | 1.03 | 0.94 | 0.828 | 0.714 | 0.634 | 0.787 | 0.466 | 0.608 | 0.597 | 0.442 | 0.499 | 0.475 | 0.457 | 0.496 | 0.466 | 0.427 | 0.402 | 0.468
11 | NCI-H1792 | 0.733 | 0.648 | 0.745 | 0.691 | 0.62 |  |  |  |  |  |  |  |  |  |  | 0.819 | 0.685 | 0.78 | 0.724 | 0.552
12 | NCI-H1563 | 0.958 | 0.995 | 0.985 | 0.971 | 0.918 |  |  |  |  |  |  |  |  |  |  | 0.435 | 0.479 | 0.451 | 0.471 | 0.436
13 | NCI-H522 |  |  |  |  |  | 0.921 | 0.907 | 0.892 | 0.913 | 0.753 | 0.578 | 0.458 | 0.555 | 0.572 | 0.545 | 0.937 | 0.974 | 0.845 | 0.855 | 0.884
14 | HCC-44 | 0.886 | 0.736 | 0.91 | 0.847 | 0.588 | 1.16 | 1.07 | 1.02 | 1.16 | 0.82 | 1.05 | 0.913 | 1.04 | 0.976 | 1.02 |  |  |  |  | 
15 | NCI-H1299 | 1.05 | 1.04 | 0.997 | 0.894 | 0.926 |  |  |  |  |  |  |  |  |  |  |  |  |  |  | 
16 | ChaGo-K-1 |  |  |  |  |  | 0.702 | 0.751 | 0.743 | 0.555 | 0.676 | 0.251 | 0.227 | 0.216 | 0.218 | 0.217 | 0.647 | 0.606 | 0.605 | 0.533 | 0.59
17 | NCI-H1648 |  |  |  |  |  | 0.623 | 0.81 | 0.754 | 0.952 | 0.899 | 0.418 | 0.564 | 0.467 | 0.398 | 0.597 |  |  |  |  | 
18 | EBC-1 | 0.97 | 0.775 | 0.797 | 0.771 | 0.93 |  |  |  |  |  |  |  |  |  |  |  |  |  |  | 
19 | IA-LM | 0.83 | 0.999 | 1.09 | 1.11 | 1.06 | 1.23 | 0.835 | 1.33 | 1.37 | 1.23 |  |  |  |  |  |  |  |  |  | 
20 | NCI-H1703 | 0.332 | 0.382 | 0.345 |  | 0.317 |  |  |  |  |  |  |  |  |  |  |  |  |  |  | 
